From US20260217767A1, “NOVEL A4B7 THIOETHER PEPTIDE DIMER ANTAGONISTS” (Protagonist Therapeutics, Inc., priority 2014, published 2026)
pIC50: −log10 of the molar value. Where a SMILES comes first, the peptide text is derived from it.

Columns and labels:
[1] = molecular target: T1, rh integrin α4β7 (Homo sapiens, UniProt P13612+P26010); assay: α4β7-MAdCAM Competition ELISA; assay type: binding; settings: thioether monomer peptides, Table 6; read-out: ELISA A4B7
T1 construct: purchased R&D Systems 5397-A30
T1 sequence (P13612 34-977 limits assumed): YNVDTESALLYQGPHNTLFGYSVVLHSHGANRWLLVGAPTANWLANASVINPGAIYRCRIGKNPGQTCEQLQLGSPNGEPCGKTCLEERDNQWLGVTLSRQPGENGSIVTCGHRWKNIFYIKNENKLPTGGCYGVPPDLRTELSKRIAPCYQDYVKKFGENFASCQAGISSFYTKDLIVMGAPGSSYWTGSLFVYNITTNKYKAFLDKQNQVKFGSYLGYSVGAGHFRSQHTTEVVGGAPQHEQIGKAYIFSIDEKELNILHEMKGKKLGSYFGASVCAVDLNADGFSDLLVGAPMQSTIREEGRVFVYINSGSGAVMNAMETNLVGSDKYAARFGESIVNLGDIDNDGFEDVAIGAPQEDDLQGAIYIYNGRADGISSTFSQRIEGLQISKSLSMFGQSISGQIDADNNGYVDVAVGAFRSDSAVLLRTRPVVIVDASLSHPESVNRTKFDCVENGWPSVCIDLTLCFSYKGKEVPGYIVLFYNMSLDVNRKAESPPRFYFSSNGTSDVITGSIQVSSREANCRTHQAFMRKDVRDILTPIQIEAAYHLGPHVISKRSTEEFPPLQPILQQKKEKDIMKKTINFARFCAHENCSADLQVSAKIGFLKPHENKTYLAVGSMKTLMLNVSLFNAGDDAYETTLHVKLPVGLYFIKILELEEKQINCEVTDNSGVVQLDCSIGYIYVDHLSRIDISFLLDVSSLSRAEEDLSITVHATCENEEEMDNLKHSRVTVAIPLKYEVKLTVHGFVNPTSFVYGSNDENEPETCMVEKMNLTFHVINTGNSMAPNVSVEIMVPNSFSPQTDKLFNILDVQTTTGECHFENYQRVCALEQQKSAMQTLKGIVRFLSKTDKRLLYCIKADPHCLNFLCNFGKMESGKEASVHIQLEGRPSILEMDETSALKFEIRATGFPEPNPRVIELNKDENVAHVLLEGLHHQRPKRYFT
T1 sequence (P26010 20-723 limits assumed): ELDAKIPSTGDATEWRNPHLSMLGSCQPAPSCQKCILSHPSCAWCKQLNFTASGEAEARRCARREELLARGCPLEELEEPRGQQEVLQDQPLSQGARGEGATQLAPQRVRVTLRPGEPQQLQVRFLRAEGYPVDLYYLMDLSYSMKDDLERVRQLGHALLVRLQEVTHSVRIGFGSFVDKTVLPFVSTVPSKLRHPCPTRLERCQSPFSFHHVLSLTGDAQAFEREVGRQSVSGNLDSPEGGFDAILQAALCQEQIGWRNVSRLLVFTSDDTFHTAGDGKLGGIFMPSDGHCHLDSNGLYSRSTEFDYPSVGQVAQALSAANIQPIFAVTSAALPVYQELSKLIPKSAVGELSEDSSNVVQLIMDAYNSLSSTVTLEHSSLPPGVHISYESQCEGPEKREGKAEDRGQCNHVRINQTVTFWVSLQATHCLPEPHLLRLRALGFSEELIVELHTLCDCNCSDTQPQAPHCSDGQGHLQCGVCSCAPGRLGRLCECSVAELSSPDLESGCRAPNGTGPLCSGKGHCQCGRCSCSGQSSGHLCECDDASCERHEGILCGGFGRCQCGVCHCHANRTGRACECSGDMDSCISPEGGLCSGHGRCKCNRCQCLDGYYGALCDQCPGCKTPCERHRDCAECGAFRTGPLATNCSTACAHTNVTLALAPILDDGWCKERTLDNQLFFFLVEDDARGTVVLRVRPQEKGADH
Method: α4β7-MAdCAM Competition ELISA A nickel coated plate (Pierce #15442) was coated with rh integrin α4β[…] Systems #5397-A30) at 800 ng/well and incubated at room temperature with shaking for 1 hr. The solution was then removed by shaking and blocked with assay buffer (50 mM Tris-HCl pH7.6, 150 mM NaCl, 1 mM MnCl2 or MgCl2, 0.05% Tween-20 and 0.5% BSA) at 250 ul/well. The plate was then incubated at room temperature for 1 hr. Each well was washed 3 times with wash buffer (50 mM Tris-HCl pH7.6, 100 mM NaCl, 1 mM MnCl2 or MgCl2, 0.05% Tween-20). To each well was added 25 ul of a serial dilution (3-fold dilutions in assay buffer) of peptides starting at 20 μM. 25 ul of recombinant human MAdCAM-1 (R&D Systems #6056-MC) was then added to each well at a fixed concentration 20 nM. The final starting peptide concentration was 10 μM, and the final MAdCAM-1 concentration was 10 nM. The plates were then incubated at room temperature for 1 hr to reach binding equilibrium. The wells were then washed three times with wash buffer. 50 ul of mouse anti-human IgG1-HRP (Invitrogen #A10648) diluted in 1:2000 in assay buffer was then added to each well. The wells were incubated at room temperature for 45 min with shaking. The wells were then washed 3 times with wash buffer. 100 ul of TMB were then added to each well and closely observe during development time. The reaction was stopped with 2N H2SO4 and absorbance was read at 450 nm.

[2] = Simulated Intestinal Fluid (SIF) Stability Assay; assay type: in vitro ADME; settings: pig, 37° C., monomers, Table 6; for half-life: porcine pancreatin; for half-life at 22 μM: simulated intestinal fluid (SIF) with 1% porcine pancreatin, pH 6.5, porcine pancreatin
Outline: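 Percent peptide remaining over time was measured by LC-MS/MS as the peak-area ratio to internal standard, and a first-order decay fit gave half-life. Digests contained 22 μM peptide and 1% pancreatin in pH 6.5 FaSSIF buffer at 37° C. Aliquots were quenched in organic solvent with formic acid.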

Structure (SMILES)	pIC50 [1]	half-life [2]	half-life at 22 μM [2]
CC(C)C[C@@H]1NC(=O)[C@H]([C@@H](C)O)NC(=O)[C@H](CC(=O)O)NC(=O)[C@H](CO)NC(=O)[C@H](CCCNC(=N)N)N(C)C(=O)c2ccccc2CSC(C)(C)[C@@H](C(=O)N[C@@H](Cc2cccc3ccccc23)C(=O)N[C@@H](CCC(=O)O)C(=O)N[C@H](CCCCN)C(N)=O)NC1=O [compound 77] (HELM PEPTIDE1{[meR].S.D.T.L.[Pen].[O=C([C@H](Cc1cccc2ccccc12)N[*:1])[*:2]].E.[dK].[am]}|CHEM1{[O=C(c1ccccc1C[*:2])[*:1]]}$PEPTIDE1,CHEM1,1:R1-1:R1|PEPTIDE1,CHEM1,6:R3-1:R2$$$V2.0)	> 7.60	1.47 h	
CC(C)C[C@@H]1NC(=O)[C@H]([C@@H](C)O)NC(=O)[C@H](CC(=O)O)NC(=O)[C@H](CO)NC(=O)[C@H](CCCNC(=N)N)N(C)C(=O)c2ccccc2CSC(C)(C)[C@@H](C(=O)N[C@@H](Cc2ccc(O)cc2)C(=O)N[C@@H](CCC(=O)O)C(=O)N[C@H](CCCCN)C(N)=O)NC1=O [compound 78] (HELM PEPTIDE1{[meR].S.D.T.L.[Pen].Y.E.[dK].[am]}|CHEM1{[O=C(c1ccccc1C[*:2])[*:1]]}$PEPTIDE1,CHEM1,1:R1-1:R1|PEPTIDE1,CHEM1,6:R3-1:R2$$$V2.0)	> 7.60		1.3 h
CC(C)C[C@@H]1NC(=O)[C@H]([C@@H](C)O)NC(=O)[C@H](CC(=O)O)NC(=O)[C@H](CO)NC(=O)[C@H](CCCNC(=N)N)N(C)C(=O)c2ccccc2CSC(C)(C)[C@@H](C(=O)N[C@H](Cc2ccccc2)C(=O)N[C@@H](Cc2ccc3ccccc3c2)C(=O)N[C@H](CCCCN)C(N)=O)NC1=O [compound 71] (HELM PEPTIDE1{[meR].S.D.T.L.[Pen].[dF].[O=C([C@H](Cc1ccc2ccccc2c1)N[*:1])[*:2]].[dK].[am]}|CHEM1{[O=C(c1ccccc1C[*:2])[*:1]]}$PEPTIDE1,CHEM1,1:R1-1:R1|PEPTIDE1,CHEM1,6:R3-1:R2$$$V2.0)	7.00 to 7.60		> 3 h
CC(C)C[C@@H]1NC(=O)[C@H]([C@@H](C)O)NC(=O)[C@H](CC(=O)O)NC(=O)[C@H](CO)NC(=O)[C@H](CCCNC(=N)N)N(C)C(=O)C(C)SC[C@@H](C(=O)N[C@@H](Cc2c[nH]c3ccccc23)C(=O)N[C@H](CCCCN)C(N)=O)NC1=O (single isomer, unassigned) [compound 51]	7.00 to 7.60		0.1 h
CC(C)C[C@@H]1NC(=O)[C@H]([C@@H](C)O)NC(=O)[C@H](CC(=O)O)NC(=O)[C@H](CO)NC(=O)[C@H](CCCNC(=N)N)N(C)C(=O)c2ccccc2CSC(C)(C)[C@@H](C(=O)N[C@@H](Cc2ccccc2)C(=O)N[C@@H](CCC(=O)O)CC(=O)N[C@H](CCCCN)C(N)=O)NC1=O [compound 73] (HELM PEPTIDE1{[meR].S.D.T.L.[Pen].F.[O=C(O)CC[C@@H](CC(=O)[*:2])N[*:1]].[dK].[am]}|CHEM1{[O=C(c1ccccc1C[*:2])[*:1]]}$PEPTIDE1,CHEM1,1:R1-1:R1|PEPTIDE1,CHEM1,6:R3-1:R2$$$V2.0)	> 7.60		> 3 h
CC(C)C[C@@H]1NC(=O)[C@H]([C@@H](C)O)NC(=O)[C@H](CC(=O)O)NC(=O)[C@H](CO)NC(=O)[C@H](CCCNC(=N)N)N(C)C(=O)c2ccccc2CSC(C)(C)[C@@H](C(=O)N[C@@H](Cc2ccc(O)cc2)C(=O)N[C@@H](CCC(=O)O)CC(=O)N[C@H](CCCCN)C(N)=O)NC1=O [compound 74] (HELM PEPTIDE1{[meR].S.D.T.L.[Pen].Y.[O=C(O)CC[C@@H](CC(=O)[*:2])N[*:1]].[dK].[am]}|CHEM1{[O=C(c1ccccc1C[*:2])[*:1]]}$PEPTIDE1,CHEM1,1:R1-1:R1|PEPTIDE1,CHEM1,6:R3-1:R2$$$V2.0)	> 7.60		> 3 h
CC(C)C[C@@H]1NC(=O)[C@H]([C@@H](C)O)NC(=O)[C@H](CC(=O)O)NC(=O)[C@H](CO)NC(=O)[C@H](CCCNC(=N)N)N(C)C(=O)c2ccccc2CSC(C)(C)[C@@H](C(=O)N[C@@H](Cc2ccc(C(F)(F)F)cc2)C(=O)N[C@@H](CCC(=O)O)C(=O)N[C@H](CCCCN)C(N)=O)NC1=O [compound 76] (HELM PEPTIDE1{[meR].S.D.T.L.[Pen].[O=C([C@H](Cc1ccc(C(F)(F)F)cc1)N[*:1])[*:2]].E.[dK].[am]}|CHEM1{[O=C(c1ccccc1C[*:2])[*:1]]}$PEPTIDE1,CHEM1,1:R1-1:R1|PEPTIDE1,CHEM1,6:R3-1:R2$$$V2.0)	> 7.60	> 3 h	
CC(C)C[C@@H]1NC(=O)[C@H]([C@@H](C)O)NC(=O)[C@H](CC(=O)O)NC(=O)[C@H](CO)NC(=O)[C@H](CCCNC(=N)N)N(C)C(=O)c2ccccc2CSCC[C@@H](C(=O)N[C@@H](Cc2c[nH]c3ccccc23)C(=O)N[C@@H](CCC(=O)O)C(=O)N[C@H](CCCCN)C(N)=O)NC1=O [compound 67] (HELM PEPTIDE1{[meR].S.D.T.L.[O=C([C@H](CCS[*:3])N[*:1])[*:2]].W.E.[dK].[am]}|CHEM1{[O=C(c1ccccc1C[*:2])[*:1]]}$PEPTIDE1,CHEM1,1:R1-1:R1|PEPTIDE1,CHEM1,6:R3-1:R2$$$V2.0)	> 7.60	< 0.333 h	
CC(C)C[C@@H]1NC(=O)[C@H]([C@@H](C)O)NC(=O)[C@H](CC(=O)O)NC(=O)[C@H](CO)NC(=O)[C@H](CCCNC(=N)N)N(C)C(=O)c2ccccc2CSC(C)(C)[C@@H](C(=O)N[C@H](Cc2ccccc2)C(=O)N[C@@H](CCC(=O)O)C(=O)N[C@H](CCCCN)C(N)=O)NC1=O [compound 72] (HELM PEPTIDE1{[meR].S.D.T.L.[Pen].[dF].E.[dK].[am]}|CHEM1{[O=C(c1ccccc1C[*:2])[*:1]]}$PEPTIDE1,CHEM1,1:R1-1:R1|PEPTIDE1,CHEM1,6:R3-1:R2$$$V2.0)	> 7.60		> 3 h
CC(C)C[C@@H]1NC(=O)[C@H]([C@@H](C)O)NC(=O)[C@H](CC(=O)O)NC(=O)[C@H](CO)NC(=O)[C@H](CCCNC(=N)N)N(C)C(=O)c2ccccc2CSC(C)(C)[C@@H](C(=O)N[C@@H](Cc2c[nH]c3ccccc23)C(=O)N[C@@H](CCC(=O)O)C(=O)N(C)[C@H](CCCCN)C(N)=O)NC1=O [compound 62] (HELM PEPTIDE1{[meR].S.D.T.L.[Pen].W.E.[CN([C@H](CCCCN)C(=O)[*:2])[*:1]].[am]}|CHEM1{[O=C(c1ccccc1C[*:2])[*:1]]}$PEPTIDE1,CHEM1,1:R1-1:R1|PEPTIDE1,CHEM1,6:R3-1:R2$$$V2.0)	> 7.60		> 3 h
